Assay results published in patent publication US9491941B2, “(Hetero) arylacrylamides for the control of ectoparasites” (Novartis Tiergesundheit AG, priority 2012, dated 2016).

Tested on: Lepeophtheirus Salmonis at Copeodid Stage (sea lice copepodids)
Assay: Activity in vitro against Lepeophtheirus salmonis at copepodid stage
Details: copepodids 1 hour contact in sea water, then 48 h untreated sea water; no movement over 80 seconds; serial dilution (MED)
Procedure: 3—Activity In Vitro Against Lepeophtheirus Salmonis at Copeodid Stage
Sea lice copepodids were used to seed a 96-well plate containing the test substances to be evaluated for antiparasitic activity. Each compound was tested by serial dilution in order to determine its minimal effective dose (MED). Copepodids were left in contact with the test compound diluted in sea water for 1 hour. They were then incubated in untreated sea water for 48 h. Efficacy against sea lice was then confirmed if no copepodid moved over a period of 80 seconds.

Row | Structure (SMILES) | efficacy (EC80) [ppb]
1 | CC1(NC(=O)c2ccc(/C=C/C(=O)NC(c3cccc(C(F)(F)F)c3)C(F)(F)F)c3ccccc23)CCC1 (stereo not drawn) [Example 1.41] | 5
2 | O=C(/C=C/c1ccc(C(=O)NCC2CC2)c2ccccc12)NC(c1cccc(C(F)(F)F)c1)C(F)(F)F (stereo not drawn) [Example 1.1, N-(cyclopropylmethyl)-4-[(1E)-2-({2,2,2-trifluoro-1-[3-(trifluoromethyl)phenyl]ethyl}carbamoyl)eth-1-en-1-yl]naphthalene-1-carboxamide] | 50
3 | O=C(/C=C/c1ccc(C(=O)NC2CC2)c2ccccc12)NC(c1cccc(C(F)(F)F)c1)C(F)(F)F (stereo not drawn) [Example 4.1] | 50
4 | O=C(/C=C/c1ccc(C(=O)NC2CON(CC(F)(F)F)C2=O)c2ccccc12)NC(c1cccc(C(F)(F)F)c1)C(F)(F)F (stereo not drawn) [Example 1.46] | 50
5 | Cc1cccc(C(NC(=O)/C=C/c2ccc(C(=O)NC3CC3)c3ccccc23)C(F)(F)F)c1 (stereo not drawn) [Example 1.58] | 50
6 | O=C(/C=C/c1ccc(C(=O)NC2CC2)c2cccnc12)NC(c1cccc(C(F)(F)F)c1)C(F)(F)F (stereo not drawn) [Example 3.2] | 50
7 | O=C(/C=C/c1ccc(C(=O)NC2CC2)c2ccccc12)NC(c1cccc(Br)c1)C(F)(F)F (stereo not drawn) [Example 1.56] | 50
8 | O=C(/C=C/c1ccc(C(=O)NCC2CSC2)c2ccccc12)NC(c1cccc(C(F)(F)F)c1)C(F)(F)F (stereo not drawn) [Example 1.43] | 5
9 | O=C(/C=C/c1ccc(C(=O)NC2CC2)c2ccccc12)NC(c1ccc(Cl)c(C(F)(F)F)c1)C(F)(F)F (stereo not drawn) [Example 1.66] | 50
10 | CC(C)NC(=O)c1ccc(/C=C/C(=O)NC(c2cccc(C(F)(F)F)c2)C(F)(F)F)c2ccccc12 (stereo not drawn) [Example 1.27] | 50
11 | O=C(/C=C/c1ccc(C(=O)NC2CC2)c2ccccc12)NC(c1cccc(F)c1)C(F)(F)F (stereo not drawn) [Example 1.65] | 5
12 | O=C(/C=C/c1ccc(C(=O)NC2CC(F)(F)C2)c2ccccc12)NC(c1cccc(C(F)(F)F)c1)C(F)(F)F (stereo not drawn) [Example 1.35] | 50
13 | O=C(/C=C/c1ccc(C(=O)NCc2ccco2)c2ccccc12)NC(c1cccc(C(F)(F)F)c1)C(F)(F)F (stereo not drawn) [Example 1.3] | 50
14 | O=C(/C=C/c1ccc(C(=O)NC2CC(F)C2)c2ccccc12)NC(c1cccc(C(F)(F)F)c1)C(F)(F)F (stereo not drawn) [Example 1.36] | 50
15 | O=C(/C=C/c1ccc(C(=O)NC2CSC2)c2ccccc12)NC(c1cccc(C(F)(F)F)c1)C(F)(F)F (stereo not drawn) [Example 1.10] | 50
16 | Cc1cc(/C=C/C(=O)NC(c2cccc(C(F)(F)F)c2)C(F)(F)F)sc1C(=O)NC1CC1 (stereo not drawn) [Example 2.4] | 50
17 | O=C(/C=C/c1ccc(C(=O)NC2CC2)c2ccccc12)NC(c1cccc2ccccc12)C(F)(F)F (stereo not drawn) [Example 1.82] | 50
18 | CCNC(=O)c1ccc(/C=C/C(=O)NC(c2cccc(C(F)(F)F)c2)C(F)(F)F)c2ccccc12 (stereo not drawn) [Example 1.13] | 50
19 | N#CC1(NC(=O)c2ccc(/C=C/C(=O)NC(c3cccc(C(F)(F)F)c3)C(F)(F)F)c3ccccc23)CC1 (stereo not drawn) [Example 1.26] | 0.5
20 | O=C(/C=C/c1ccc(C(=O)NC2CC2)c2ccccc12)NC(c1cccc(C(F)(F)F)c1)C(F)(F)F (stereo not drawn) [Example 1.5] | 5
21 | CCN1OCC(NC(=O)c2ccc(/C=C/C(=O)NC(c3cccc(C(F)(F)F)c3)C(F)(F)F)c3ccccc23)C1=O (stereo not drawn) [Example 1.34] | 50
22 | O=C(C=Cc1ccc(C(=O)NC2CC2F)c2ccccc12)NC(c1cccc(C(F)(F)F)c1)C(F)(F)F (stereo not drawn) [Example 1.40] | 50
23 | O=C(/C=C/c1ccc(C(=O)NC2CC2)c2ccccc12)NC(c1cc(Cl)c(Cl)c(Cl)c1)C(F)(F)F (stereo not drawn) [Example 1.64] | 5
24 | O=C(/C=C/c1ccc(C(=O)NC2CC2)c2ccccc12)NC(c1cc(Cl)cc(Cl)c1)C(F)(F)F (stereo not drawn) [Example 1.62] | 50
25 | O=C(/C=C/c1ccc(C(=O)NC2CC2)c2ccccc12)NC(c1ccc(Cl)c(Cl)c1)C(F)(F)F (stereo not drawn) [Example 1.63] | 50
26 | O=C(/C=C/c1ccc(C(=O)NC2CC2)c2ccccc12)NC(c1cccc(OC(F)(F)F)c1)C(F)(F)F (stereo not drawn) [Example 1.61] | 0.5
27 | N#CC1(NC(=O)c2ccc(/C=C/C(=O)NC(c3cccc(C(F)(F)F)c3)C(F)(F)F)c3ccccc23)CCC1 (stereo not drawn) [Example 1.44] | 50
